Measurements reported in patent US9095565B2, “Methods for treating blood disorders” (Phoenicia Biosciences, Inc., priority 2006, dated 2015).

Tests used:
[1] = test system: fetal globin mRNA; assay: Fetal globin induction in phlebotomized anemic baboons; assay type: in vivo, baboon
Method: Juvenile baboons were catheterized with venous and arterial catheters, and were phlebotomized a set amount of blood daily to maintain anemia with a hemoglobin level of 7.0-7.5 g/dl, from a baseline normal hemoglobin level of (12-13 g/dl). Normal saline was infused to replace the amount of blood withdrawn. This degree of phlebotomy exchanges the blood volume every 10-20 days.
Fetal globin mRNA was analyzed at baseline anemia before and following administration of test compounds. Globin chain protein synthesis confirmed the mRNA findings.
Following establishment of the stable level of anemia, a test compound was administered once/day, either intravenously or orally, and blood was withdrawn through the arterial catheter for analysis of globin mRNA or for analysis of the test compound in the plasma by HPLC-MS. Pharmacokinetic profiles were established from the plasma levels and oral bioavailability (comparing area under the curve between IV and oral plasma levels) was determined for the test compounds.
In anemic Baboon 5002, baseline fetal globin mRNA, assayed by RNAse protection, was 26% of non-alpha globin. With treatment with compound Y at 5 mg/kg/dose, fetal globin mRNA increased to 48% of non-alpha globin, an 85% increase over the baseline level. Treatment with compound AK at 50 mg/kg induced a 51% fetal globin mRNA increase, a 96% increase over the baseline level. […] The human equivalent dose is 20% of these doses, or 1 mg/kg, 10 mg/kg, or 8 mg/kg respectively. Thus, these 3 compounds are highly suitable for pharmaceutical compositions at doses that human patients can readily tolerate.

[2] = test system: myeloid colonies; assay: Experiment 3: myeloid colonies in cord blood cultured without added growth factors; assay type: cell-based, human; settings: no added growth factors
Method: (§1) Erythroid burst-forming units (BFU-E) (erythroid progenitors) and colony-forming units granulocyte-macrophage (CFU-GM) (myeloid colonies) were cultured in semi-solid or in two-phase suspension media, with or without hematopoietic growth factors at high levels (e.g., erythropoietin at 3 U/ml) or reduced levels (BFU-E cell proliferation was evaluated by enumeration in colonies developing in the presence of reduced amounts of erythropoietin (0.5 U/ml) rather than 3 U (or 3000 mU)/ml, which is standard for these experimental systems), from cord blood or the peripheral blood of several types of humans. Experiments were carried out on samples derived from 1) β-thalassemia patients who expressed variable levels of fetal globin at baseline (and in untreated control cultures) and represent a variety of potential individual responses, 2) from normal umbilical cord blood samples, which express 40-50% fetal globin at baseline (and in untreated control cultures), 3) from CD34+ cells isolated from normal adult peripheral blood, which expressed low levels of fetal globin in untreated control cultures and at baseline; and 4) from peripheral blood of patients with sickle cell disease who were receiving treatment with hydroxyurea. These biological samples provide a range of potential difficulty in stimulating fetal globin expression in human patients.
Control colonies were established in cultures with no added growth factors to support myelopoiesis, in Iscove's Modified Dulbecco's Media (IMDM) methylcellulose media with charcoal-absorbed fetal bovine serum, beta mercaptoethanol, BSA.

[3] = test system: γ-globin gene; assay: Related study: relative in vitro γ-globin gene induction; assay type: cell-based
Method: (§2) In a related study, the relative luciferase reporter gene induction, γ-globin gene induction, and F cell production was tested for several of the candidate compounds. The relative in vitro γ-globin gene reporter stimulation for the tested compounds was as follows: compound P>M>W=R=Y. The relative in vitro γ-globin gene induction for the tested compounds was as follows: P>R=M>Y>W>. The relative in vitro F-cell production was as follows: W>Y>R>M>P. The relative potency for F-cell production was as follows: R>M>Y>P>W.

[4] = test system: cells expressing fetal globin (F-cells); assay: Experiment 1: proportion of F-cells in hematopoietic colonies by FACScan; assay type: cell-based, human; settings: same low concentrations as for fetal globin mRNA induction
Method: as §1
Hematopoietic colonies were enumerated with or without (+/−) the test compounds, and compared to colonies which developed in the presence of hematopoietic growth factors alone from the same subject (untreated control colonies), and proportions of cells expressing fetal globin (F-cells) were analyzed by FACScan analysis.

[5] = test system: γ-globin mRNA; assay: γ-globin mRNA by RT-PCR in erythroid colonies cultured from cord blood; assay type: cell-based, human; settings: for Concentration required: increase in fetal globin mRNA, erythroid colonies from cord blood; for No. of Positive responses: positive cultures/cultures tested
Method: γ-globin mRNA was analyzed in control and treated erythroid colonies cultured from cord blood, by RT-PCR.

[6] = test system: γ-globin gene reporter; assay: Related study: relative luciferase reporter gene induction; assay type: cell-based
Method: as §2

[7] = Pharmacokinetic profiles in anemic juvenile baboons (plasma levels by HPLC-MS); assay type: in vivo; settings: 10 mg/kg oral, baboon
Method: Juvenile baboons were catheterized with venous and arterial catheters, and were phlebotomized a set amount of blood daily to maintain anemia with a hemoglobin level of 7.0-7.5 g/dl, from a baseline normal hemoglobin level of (12-13 g/dl). Normal saline was infused to replace the amount of blood withdrawn. This degree of phlebotomy exchanges the blood volume every 10-20 days. Following establishment of the stable level of anemia, a test compound was administered once/day, either intravenously or orally, and blood was withdrawn through the arterial catheter for analysis of globin mRNA or for analysis of the test compound in the plasma by HPLC-MS. Pharmacokinetic profiles were established from the plasma levels and oral bioavailability (comparing area under the curve between IV and oral plasma levels) was determined for the test compounds.

[8] = test system: F-cell; assay: Related study: in vitro F cell production; assay type: cell-based
Method: as §2

[9] = test system: BFU-E; assay: BFU-E cultured from cord blood; assay type: cell-based, human
Method: as §1
In a related study, BFU-E cultured from cord blood, was tested with or without compound M, P, R, T, W, Y, Z, AI, F, or 3-(5-chlorothien-3-yl)acrylic acid.

[10] = test system: Erythroid colonies (BFU-E); assay: Experiment 2: erythroid colonies (BFU-E) cultured from patients with beta thalassemia; assay type: cell-based, human; settings: optimal panel of growth factors
Method: as §1
Erythroid colonies were cultured from patients with beta thalassemia, either without any test compounds (Control), only an optimal panel of hematopoietic growth factors, or with one of the test compounds M, P, T, 2-methyl-1-benzofuran-4-carboxylic acid, V, W, X, Y, AK, AC, or AI. […] Colony numbers were increased above the control cultures (% BFU-E/Control) by anywhere from 25% to 230%. Each of the listed test compounds was tested in at least 5 different patients' blood and the differences were statistically significant.

[11] = test system: γ globin promoter; assay: β/γ-globin promoter driven reporter gene assay; assay type: cell-based; settings: Table 2
[12] = test system: Erythroid cells cultured from adult blood; assay: Experiment 4: erythroid cells cultured from adult blood CD34+ cells (cell counts, qRT-PCR, HPLC of hemoglobins); assay type: cell-based, human
Method: Erythroid cells cultured from adult blood are low-HbF expressing and are the most difficult to alter with regard to globin expression. This experiment analyzed erythroid cells cultured from adult blood in the presence or absence of representative test compounds.
Erythroid cells were generated by culturing purified CD34+ cells in Flt-3 ligand, stem cell factor (SCF) and IL-3 for seven days followed by growth in EPO for 14 days. For treatment, cells were cultured as above in a T75 flask then split into multiple flasks on day 8 and treatment with the test compounds was begun. Compound P or other test compounds were diluted from stock solutions with the microliter volumes of stock added to each culture flask for final working concentrations. Cells were enumerated every two days by hemacytometer count. RNA was harvested from 10^6 cells every two days using RNeasy Plus Mini Kit (Qiagen) and qRT-PCR performed using IQ SybrGreen Supermix on an Opticon Monitor instrument (MJ Research). […] Separation of hemoglobins was performed by cation exchange HPLC using a 35×4.6 mm; […] PolyCAT A column (Nest Group) as described previously by Cheryl Rognerud and Ching-Nan Ou, and outlined by the column manufacturer.
QPCR primers were designed using known sequences for α-globin, β-globin, γ-globin, β-actin and B3PD. Primers were designed to span at least one […].

[13] = test system: fetal globin gene promoter; assay: Example 8: factor occupancy of globin gene promoters in primary erythroid cells; assay type: cell-based
Text: This is a selective effect on the fetal (gamma globin) gene promoter, without generalized widespread epistatic effects or any effects on the beta globin promoter, as other agents tend to cause. The transcription factor EKLF and the remodeling complex Brg1 and Pol II became bound to the promoter in association with gene activation. In contrast, there were no effects on the beta globin gene promoter. These compounds therefore produce highly specific activating effects solely on the globin gene promoter which would be beneficial to induce for therapy of the beta globin gene disorders, and provide a targeted molecular activity.

[14] = test system: mice transgenic for the micro-LCR-201 gamma-globin gene promoter; assay: γ-globin induction and hematocrit in transgenic mice; assay type: in vivo, mouse; settings: IP once/day, 5 days/week, 2 weeks
Method: Transgenic mice containing the human fetal globin gene and a micro-Locus Control Region (LCR) received no treatment (controls) or were treated with test compounds and γ-globin mRNA was analyzed by RT-PCR. Compound W was administered to mice transgenic for the micro-LCR-201 gamma-globin gene promoter, by IP injection once/day for 5 days/week for 2 weeks, and gamma-globin mRNA was assayed by qPCR. Hematocrit was analyzed once per week. A significant difference in expression of human fetal globin mRNA and in hematocrit between Control and compound W-treated mice was found in initial experiments as summarized in Table 4 below.

Row | SMILES | production of myeloid colonies compared to untreated control [2] | relative in vitro γ-globin gene induction (rank order) [3] | proportion of F-cells above the percentage in untreated controls [4] | Concentration required [5] [µM] | No. of Positive responses [5] | relative in vitro γ-globin gene reporter stimulation (rank order) [6] | relative in vitro F-cell production (rank order) [8] | relative potency for F-cell production (rank order) [8] | numbers of BFU-E colonies compared to controls [9] | number of erythroid colonies compared to matched control cultures [10] | % γ globin promoter induction (above untreated control) [11] | also measured
1 | COc1cc(OC)nc(SC(C(=O)O)C(C)C)n1 (racemic) [Compound Y] | stimulated production of myeloid colonies | P>R=M>Y>W | significant increases | 5 | 1/3 | P>M>W=R=Y | W>Y>R>M>P | R>M>Y>P>W | increased numbers of colonies | increased the number of colonies | ** (‘**’ indicates a 100%-200% increase) | increase over the baseline level of fetal globin mRNA ([1]; Baboon 5002, 5 mg/kg/dose): 85%; fetal globin mRNA (% of non-alpha globin) ([1]; Baboon 5002, 5 mg/kg/dose, baseline 26%, RNAse protection): 48%; initial burst level [7]: does not produce an undesirable high initial burst level; persistence in plasma [7]: greater than 24 hours
2 | O=C(O)c1cccc(-c2cc3ccccc3oc2=O)c1 [Compound P] | – | P>R=M>Y>W | significant increases | 20 | 6/6 | P>M>W=R=Y | W>Y>R>M>P | R>M>Y>P>W | increased numbers of colonies | increased the number of colonies | *** (‘***’ indicates an over 200% increase of γ globin promoter induction over untreated controls) | induction of fetal globin (% of globin expression) ([1]; phlebotomized anemic baboon with no baseline fetal globin): 7%; beta globin expression ([1]; same baboon, baseline 100% beta globin): concommitant reduction; Cell counts vs cells cultured with erythropoietin alone ([12]; 20 microM): increased; increase in expression of fetal globin (Hemoglobin F protein) vs untreated control ([12]; 100 micromolar, one cycle of erythroid differentiation): 19 fold; production/expression of alpha globin ([12]; different doses): no effect; production of beta globin ([12]; same doses as increases in fetal globin mRNA): reciprocal decrease; EKLF and Brg1 ATPase proteins at the gamma-globin gene promoter [13]: induced recruitment; effects on the beta globin gene promoter [13]: no effects; repressor complex of HDAC3, NCoR at the fetal globin gene promoter [13]: displacement of a repressor complex of HDAC3, NCoR
3 | O=C(O)c1cccc(Cn2cc([N+](=O)[O-])cn2)c1 [Compound W] | stimulated production of myeloid colonies | P>R=M>Y>W | significant increases | 40 | 5/6 | P>M>W=R=Y | W>Y>R>M>P | R>M>Y>P>W | increased numbers of colonies | increased the number of colonies | ** (‘**’ indicates a 100%-200% increase) | Hematocrit ([14]; untreated 51 +/− 0.45): 57 +/− 3; γ-globin mRNA/S16 (mean relative units) ([14]; untreated 1508): 3418 mean relative units
